{"source": "patent US20160058829A1", "about": "“ANTI-FIBROTIC PEPTIDES AND THEIR USE IN METHODS FOR TREATING DISEASES AND DISORDERS CHARACTERIZED BY FIBROSIS” (Thrasos Innovation, Inc., priority 2011, published 2016)", "key": {"[1]": {"test_system": "Streptozotocin-induced diabetic CD-1 mice", "assay": "Advanced diabetic nephropathy, captopril and captopril/THR-123 combination (month 7-8)"}, "[2]": {"test_system": "p38 MAPK", "assay": "p38 MAPK phosphorylation in HK-2 cells", "assay_type": "cell-based, human", "settings": "HK-2 cells", "text": "The significance of p38 MAPK is that this protein is implicated as a non-Smad-dependent pathway for TGF-β-dependent EMT. Other non-Smad-dependent pathways implicated in TGF-β-dependent EMT include RhoA, Ras, PI3 kinase, Notch, and Wnt signaling pathways.\nIt has been shown that regulation p38 MAPK activity by pro-inflammatory factors has implications in fibrosis."}, "[3]": {"test_system": "HK-2 cells", "assay": "TNF-α-induced inflammatory cytokine production in HK-2 cells (ELISA)", "assay_type": "cell-based, human", "method": "FIG. 37 provides a bar graph showing a comparison of the effects of THR-123 (or “THR-1405”) and the specific inhibitor SB 203580 on the level of TNF-α-induced IL-6 production, an inflammatory marker, in human renal tubule epithelial cells (HK-2).\nFIG. 47A-FIG. 47C Anti-inflammatory activity of THR-123. PTEC-derived HK-2 (HK-2) cells were culture on 24-well plate (30,000 cells/well). Cells are exposed to K-SFM medium alone or TNF-α (5 ng/ml). Twenty hours after TNF-α incubation, cells are washed twice by pre-warmed culture media and subsequently cells are incubated with various concentration of THR-123 or BMP7 for 60 hours. At the end of incubation, culture medias are harvested and ELISA analysis are performed. FIG. 47A: IL-6, FIG. 47B: IL-8 and FIG. 47C: ICAM-1 results are shown. Analyze are performed in triplicates and data are shown as mean±s.e.m. in the graph.\nPreliminary screening for optimization was based on anti-inflammatory efficacy in an in vitro cell-based assay using a human renal tubular epithelial cell line (HK-2). The assay tested the ability of compounds to reverse the increase in production of cytokine IL-6 that resulted from stimulation of the cells with tumor necrosis factor (TNF)-α. Sequence-activity analysis was carried out using the SVA program. After six optimization cycles, THR-123 (FIG. 2A) emerged as the lead compound, which was further evaluated in other relevant anti-fibrosis assays (vide infra).\nHuman proximal tubular epithelial cells-derived HK-2 cells were culture on 24-well plate (30,000 cells/well). Cells are exposed to K-SFM medium alone or […] (5 ng/ml). Twenty hours after TNF-α incubation, cells are washed twice by pre-warmed culture media and subsequently cells are incubated with various concentration of THR-123 or BMP7 for 60 hours. At the end of incubation, culture medias are harvested and ELISA analysis for IL-6, IL-8 and ICAM-1 are performed."}, "[4]": {"test_system": "human proximal tubule epithelial cells (HK2)", "assay": "D-glucose-induced EMT assay, E-cadherin immunofluorescence with colorimetric image analysis", "assay_type": "cell-based", "settings": "HK2 cells, high D-glucose", "method": "Chronic hyperglycemia is a known cause of renal fibrosis in type 2 diabetes. The assay in this example induces the transdifferentiation from the epithelial to the mesenchymal phenotype (EMT) in human proximal tubule epithelial cells (HK2) by exposing them to high levels of D-glucose (100 mM and 200 mM). […] Exposure to 100 mM D-glucose results in the loss of E-cadherine expression as evidenced by the loss of the fluorescene signal. Using this assay test compounds are evaluated based on their ability to inhibit the EMT processes in the presence of high levels of D-glucose. FIGS. 4-16 are fluorescence micrographs of HK2 cells exposed to 100 mM D-glucose and 100 uM of SEQ IS NOs 1 through 11, respectively. Note that all but SEQ ID NOs 10 and 11 were able to preserve the epithelial phenotype (i.e., inhibit the EMT).\nResults are provided in the context of FIG. 1 and Table 3, below. In Table 3 below, compound response is scored using image analysis as described herein in the method of Methods and Materials, part C. A 0% response corresponds to the signal for 100 mM (or 200 mM) D-glucose (untreated) while the 100% response corresponds to the signal for media in the absence of D-glucose.\nIt has been shown that transdifferentiation of proximal tubular epithelial cells is a critical step in the development of renal fibrosis, and that this is associated with a loss of the epithelial phenotypic marker, E-cadherin expression. This provides the basis for the development of a cell-based screening assay in which high concentrations of D-Glucose (50-100 mM) are used to induce a loss of E-cadherin expression in human renal proximal tubular epithelial (HK-2) cells, and compounds are tested for their ability to reverse the loss E-cadherin expression.\nMaterials: • Human proximal tubular epithelial cells, HK-2 (ATCC #CRL-2190) • Serum-free keratinocyte medium (GIBCO #17005-042, K-SFM) • Epidermal growth factor (EGF: 5 ng/mL) • Bovine pituitary extract (BPE: 40 ug/mL) • Primary antibody, Mouse IgG anti-E-cadherin (R&D Systems # MAB1838) • BSA [Sigma #A7030] • secondary antibody, FITC-conjugated Goat anti-mouse IgG (Fab2) fragment (Sigma-Aldrich # F-2653) • Paraformaldehyde (10%)) • Triton X-100 (Sigma # T-9284) • PBS (Fisher Scientific #BP399-1) • D-PBS (Invitrogen #14190-144) • Polypropylene tips (Axygen, Inc. 0.5-10 uL, cat # T-300-L-R; 1-200 uL, Cat # T-200-L-R; 1-1000 uL, Cat # T-1000-C-L-R) • 50 mL polypropylene culture tubes (Fisher Scientific, cat #06-443-18) • 24-well Coster cell culture plates (Fisher Scientific #07-200-84)\nReagents & Test Samples: • Positive control: BMP-7, assayed at concentrations 0.1 and 1 ug/mL • Test compounds (peptides): each tested at final concentrations 100 uM and 200 uM.\nAssay Procedure for Cell Culture Assay: • Run assay in 24-well culture plates. • Seed HK-2 cells at a density between 25,000 and 30,000 cells per well in lmL K-SFM medium with supplements added (growth medium) • Incubate HK-2 cells for 24 hours at 37° C., and let cells attach the plate • Next Day afternoon, change the medium with K-SFM medium with no added supplements (serum free medium) in all wells except the first two control wells. • Continue incubating HK-2 cells overnight at 37° C. • Next Day, aspirate the medium from all wells. Incubate the cells in growth medium (first two control wells) or expose them to test compounds for 2 hours at 37° C. Final concentrations of each Test compound are 100 and 200 uM. BMP-7 serves as a positive control in the assay. • After incubation, add D-glucose to all wells except first two control wells. Final concentrations of D-Glucose are 50 and 100 mM. • Incubate HK-2 cells for 60 hours at 37° C. • Aspirate the medium from all wells. To the wells, add pre-warmed growth medium or serum free medium containing D-glucose alone or D-glucose and test compound or D-glucose and BMP-7. Final concentrations of D-Glucose and Test compound are the same as above. • Continue incubating HK-2 cells for 24 hours at 37° C. […]"}}, "note": "Entries after “also recorded” stand apart in the source; their conditions may differ. Positions of bridges follow the written chain, without caps; N, C: chain ends.", "data": [{"compound": "C[C@H](CS)C(=O)N1CCC[C@H]1C(=O)O", "note": "[captopril]", "values": [{"measurement": "mesangial matrix expansion", "setting": "[1]; CPR p.o. 50 mg/Kg/day, THR-123 p.o. 5 mg/Kg/day, month 7 to 8", "result": "did not inhibit progression of mesangial matrix expansion"}, {"measurement": "EMT program (E-cadherin/FSP1 double positive tubules)", "setting": "[1]; month 7 to 8 treatment", "result": "inhibited"}, {"measurement": "macrophage infiltration", "setting": "[1]; month 7 to 8 treatment", "result": "partially"}, {"measurement": "tubule cell apoptosis (TUNEL) in diabetic kidney", "setting": "[1]; month 7 to 8 treatment", "result": "significantly inhibited apoptosis"}, {"measurement": "macrophage infiltration", "setting": "[1]; month 7 to 8 treatment, listed as CPR", "result": "inhibited macrophage infiltration"}]}, {"compound": "C[S+]([O-])c1ccc(-c2nc(-c3ccncc3)c(-c3ccc(F)cc3)[nH]2)cc1", "note": "(stereo not drawn) [SB 203580, reference compound]", "values": [{"measurement": "basal p38 phosphorylation", "setting": "[2]", "result": "inhibited p38 phosphorylation"}, {"measurement": "TNF-α-induced IL-6 production", "setting": "[3]; HK-2 cells", "result": "significantly reduced"}]}, {"compound": "(H)-CYYDDSSSVLCKKYRS-(OH) (H-CYYDDSSSVLCKKYRS-OH; disulfide 1-11; SMILES CC(C)C[C@@H]1NC(=O)[C@H](C(C)C)NC(=O)[C@H](CO)NC(=O)[C@H](CO)NC(=O)[C@H](CO)NC(=O)[C@H](CC(=O)O)NC(=O)[C@H](CC(=O)O)NC(=O)[C@H](Cc2ccc(O)cc2)NC(=O)[C@H](Cc2ccc(O)cc2)NC(=O)[C@@H](N)CSSC[C@@H](C(=O)N[C@@H](CCCCN)C(=O)N[C@@H](CCCCN)C(=O)N[C@@H](Cc2ccc(O)cc2)C(=O)N[C@@H](CCCNC(=N)N)C(=O)N[C@@H](CO)C(=O)O)NC1=O) [SEQ ID NO: 11]", "values": [{"measurement": "preservation of the epithelial phenotype (inhibition of EMT), anti-fibrotic effect", "setting": "[4]", "result": "very weak anti-fibrotic effect; also recorded: unable to inhibit the EMT process"}, {"measurement": "activity in anti-inflammatory assays", "setting": "[3]", "result": "positive"}]}]}
